Assay [1] has as its system LDL. Briefly: Inhibitory effect on oxidative modification of LDL (copper-induced, TBA reactive substances). Type of assay: biochemical, New Zealand albino rabbits. The following applies: rabbit LDL 0.2 mg protein/ml, 0.5 μM Cu^2+, 37° C., 24 hours; read-out: Inhibition of LDL oxidation IC50. As for the experimental part:
Inhibitory effect on oxidative modification of LDL
According to the method by Kita et al. (Proc. Natl. Acad. Sci., U.S.A, Vol. 84, 5928 (1987)), the experiment was proceeded as follows.
LDL was isolated from the blood of New Zealand albino rabbits fed with a diet containing 0.5% cholesterol for 3 weeks, and dissolved in phosphate-buffered physiological saline (final LDL concentration: 0.2 mg protein/ml). To this solution, each test compound in ethanol was added and then copper sulfate (final Cu^2+ concentration: 0.5 μM) was added thereto. The mixture was incubated at 37° C. for 24 hours.
After incubation, the content of lipid peroxides in each solution was determined as thiobarbituric acid reactive substances (TBA reactive substances). Concentration for 50% inhibition (IC50) was obtained from a linear regression curve of concentration of a compound versus % inhibition of oxidative modification of LDL. To quantify TBA reactive substances, proteins were removed from the solution after incubation, and the supernatant was examined for the content of TBA reactive substances by TBA method.

Assay [2] deals with cholesterol in serum. Put plainly: Hypocholesterolemic effect in cholesterol-fed mice. In kind it is in vivo, Male ICR mice. The conditions noted are these: Mus musculus, po, 168 h, diet 1% cholesterol and 0.5% sodium cholate with 0.12% test compound, 7 days. As for the experimental part:
Hypocholesterolemic effect
Male ICR mice weighing 30 to 40 g were allowed to access to a diet containing 1% cholesterol and 0.5% sodium cholate supplemented with 0.12% of a test compound (no test compound in control group) ad libitum for 7 days. Then, the blood was taken and total cholesterol in serum was determined by the method of Allain (Clin. Chem., Vol. 20, 470 (1974)).
Total amount of VLDL cholesterol and LDL cholesterol was obtained by subtracting HLD cholesterol from total cholesterol. HLD cholesterol was quantified by the method of Ash and Hentschel et al. (Clin. Chem., Vol. 24, 2180 (1978)).
Hypocholesterolemic effect of a test compound was evaluated based on % reduction in cholesterol calculated using the equation shown below.

Setting [3] is: serum, read-out: Total Chol. reduction (%).
The mark [4] stands for this setting: total minus HDL cholesterol, read-out: (VLDL + LDL) Chol. reduction (%).

The record followed here is patent publication US5449814A, “Lignan analogues, methods of preparation thereof and anti-hyperlipemic agents” (Shionogi & Co., Ltd., priority 1991, dated 1995).

Where two headings read alike, the source gives them in different places.

The IC50 is the concentration that inhibits the measured activity by half. On to `CCC(CC)CC(=O)c1c(C(=O)OC)c(-c2ccc(OC)c(OC)c2)c2c(OC)c(OC)c(OC)cc2c1O` [Example 1, 1-(3,4-dimethoxyphenyl)-3-(3-ethyl-1-oxopentyl)-4-hydroxy-2-methoxycarbonyl-6,7,8-trimethoxynaphthalene], for which the 50% inhibitory concentration (IC50) in assay [1] worked out at 400 nM. Moreover, the inhibition in vivo at 0.12 % in diet is 35% in assay [2] (setting [3]) and 72% in assay [2] (setting [4]).
For `COC(=O)c1c(C(C)=O)c(O)c2cc(OC)c(OC)c(OC)c2c1-c1ccc(OC)c(OC)c1` [Example 2, 3-Acetyl-1-(3,4-dimethoxyphenyl)-4-hydroxy-2-methoxycarbonyl-6,7,8-trimethoxynaphthalene], in that order: 1240 nM, 22% and 59%.
`COC(=O)c1c(C(=O)C(C)C)c(O)c2cc(OC)c(OC)c(OC)c2c1-c1ccc(OC)c(OC)c1` [Example 3, 1-(3,4-Dimethoxyphenyl)-4-hydroxy-2-methoxycarbonyl-3-(2-methyl-1-oxopropyl)-6,7,8-trimethoxynaphthalene]: in assay [1], the IC50 was determined as 120 nM. In addition, the inhibition in vivo at 0.12 % in diet amounted to 21% in assay [2] (setting [3]) and 57% in assay [2] (setting [4]).
For `CCC(CC)C(=O)c1c(C(=O)OC)c(-c2ccc(OC)c(OC)c2)c2c(OC)c(OC)c(OC)cc2c1O` [Example 4, 1-(3,4-Dimethoxyphenyl)-3-(2-ethyl-1-oxobutyl)-4-hydroxy-2-methoxycarbonyl-6,7,8-trimethoxynaphthalene], in that order: 650 nM, 28% and 78%.
The corresponding values for `COC(=O)c1c(C(=O)C2CCCCC2)c(O)c2cc(OC)c(OC)c(OC)c2c1-c1ccc(OC)c(OC)c1` [Example 5, 3-Cyclohexanoyl-1-(3,4-dimethoxyphenyl)-4-hydroxy-2-methoxycarbonyl-6,7,8-trimethoxynaphthalene] are 460 nM, 22% and 61%.
Take `COC(=O)c1c(C(=O)c2ccccc2)c(O)c2cc(OC)c(OC)c(OC)c2c1-c1ccc(OC)c(OC)c1` [Example 6, 3-Benzoyl-1-(3,4-dimethoxyphenyl)-4-hydroxy-2-methoxycarbonyl-6,7,8-trimethoxynaphthalene]: the IC50 in assay [1] worked out at 180 nM. Besides, the inhibition in vivo at 0.12 % in diet in assay [2] (setting [3]) is 16%; in assay [2] (setting [4]), 55%.
The corresponding values for `COC(=O)c1c(C(=O)CC2CCCCC2)c(O)c2cc(OC)c(OC)c(OC)c2c1-c1ccc(OC)c(OC)c1` [Example 7, 3-(2-Cyclohexyl-1-oxoethyl)-1-(3,4-dimethoxyphenyl)-4-hydroxy-2-methoxycarbonyl-6,7,8-trimethoxynaphthalene] are 2580 nM, 23% and 59%.
In the case of `COC(=O)c1c(C(=O)Cc2ccccc2)c(O)c2cc(OC)c(OC)c(OC)c2c1-c1ccc(OC)c(OC)c1` [Example 8, 1-(3,4-Dimethoxyphenyl)-4-hydroxy-2-methoxycarbonyl-3-(2-phenyl-1-oxoethyl)-6,7,8-trimethoxynaphthalene], the half-inhibitory concentration (IC50) in assay [1] turned out to be 4670 nM. Moreover, the results for the inhibition in vivo at 0.12 % in diet in assay [2] (setting [3]) and in assay [2] (setting [4]) were 17% and 50%, respectively.
For `CCC(CC)CC(=O)c1c(C(=O)OC)c(-c2ccc(OC)c(OC)c2)c2sccc2c1O` [Example 15, 7-(3,4-Dimethoxyphenyl)-5-(3-ethyl-1-oxopentyl)-4-hydroxy-6-(methoxycarbonyl)benzo[b]thiophene], in that order: 7900 nM, 23% and 43%.
The corresponding values for `CCC(=O)c1c(C(=O)OC)c(-c2ccc(OC)c(OC)c2)c2c(OC)c(OC)c(OC)cc2c1O` [Example 16, 1-(3,4-Dimethoxyphenyl)-4-hydroxy-2-methoxycarbonyl-3-(1-oxopropyl)-6,7,8-trimethoxynaphthalene] are 1850 nM, 26% and 56%.
The corresponding values for `COC(=O)c1c(C(=O)c2cccc(C)c2)c(O)c2cc(OC)c(OC)c(OC)c2c1-c1ccc(OC)c(OC)c1` [Example 18, 1-(3,4-Dimethoxyphenyl)-4-hydroxy-2-methoxycarbonyl-3-(3-methylbenzoyl)-6,7,8-trimethoxynaphthalene] are 1000 nM, 13% and 66%.
Take `COC(=O)c1c(C(=O)c2ccc(C)cc2)c(O)c2cc(OC)c(OC)c(OC)c2c1-c1ccc(OC)c(OC)c1` [Example 19, 1-(3,4-Dimethoxyphenyl)-4-hydroxy-2-methoxycarbonyl-3-(4-methylbenzoyl)-6,7,8-trimethoxynaphthalene]: the half-maximal inhibitory concentration (IC50) in assay [1] was 1050 nM. Besides, the inhibition in vivo at 0.12 % in diet in assay [2] (setting [3]) came to 11%; in assay [2] (setting [4]), 58%.
For `COC(=O)c1c(C(=O)c2ccccc2OC)c(O)c2cc(OC)c(OC)c(OC)c2c1-c1ccc(OC)c(OC)c1` [Example 20, 1-(3,4-Dimethoxyphenyl)-4-hydroxy-3-(2-methoxybenzoyl)-2-methoxycarbonyl-6,7,8-trimethoxynaphthalene], in that order: 2500 nM, 14% and 63%.
As for `COC(=O)c1c(C(=O)c2ccc(OC)cc2)c(O)c2cc(OC)c(OC)c(OC)c2c1-c1ccc(OC)c(OC)c1` [Example 22, 1-(3,4-Dimethoxyphenyl)-4-hydroxy-3-(4-methoxybenzoyl)-2-methoxycarbonyl-6,7,8-trimethoxynaphthalene], the half-inhibitory concentration (IC50) in assay [1] is 820 nM. In addition, the results for the inhibition in vivo at 0.12 % in diet in assay [2] (setting [3]) and in assay [2] (setting [4]) were 12% and 60%, respectively.
The corresponding values for `COC(=O)c1c(C(=O)c2ccc(Cl)cc2)c(O)c2cc(OC)c(OC)c(OC)c2c1-c1ccc(OC)c(OC)c1` [Example 23, 3-(4-Chlorobenzoyl)-1-(3,4-dimethoxyphenyl)-4-hydroxy-2-methoxycarbonyl-6,7,8-trimethoxynaphthalene] are 1420 nM, 28% and 74%.
For `COC(=O)c1c(C(=O)c2ccc(OC)c(OC)c2)c(O)c2cc(OC)c(OC)c(OC)c2c1-c1ccc(OC)c(OC)c1` [Example 24, 3-(3,4-Dimethoxybenzoyl)-1-(3,4-dimethoxyphenyl)-4-hydroxy-2-methoxycarbonyl-6,7,8-trimethoxynaphthalene], in that order: 980 nM, 11% and 54%.
The corresponding values for `COC(=O)c1c(C(=O)c2ccc3ccccc3c2)c(O)c2cc(OC)c(OC)c(OC)c2c1-c1ccc(OC)c(OC)c1` [Example 25, 1-(3,4-Dimethoxyphenyl)-4-hydroxy-2-methoxycarbonyl-3-(2-naphthoyl)-6,7,8-trimethoxynaphthalene] are 2070 nM, 16% and 59%.
In the case of `COC(=O)c1c(C(=O)c2ccc(F)cc2)c(O)c2cc(OC)c(OC)c(OC)c2c1-c1ccc(OC)c(OC)c1` [Example 26, 1-(3,4-Dimethoxyphenyl)-3-(4-fluorobenzoyl)-4-hydroxy-2-methoxycarbonyl-6,7,8-trimethoxynaphthalene], the half-maximal inhibitory concentration (IC50) in assay [1] is 790 nM. Further, the inhibition in vivo at 0.12 % in diet is 10% in assay [2] (setting [3]) and 54% in assay [2] (setting [4]).
In the case of `CCC(CC)C(=O)c1c(C(=O)OC)c(-c2ccc(OC)c(OC)c2)c2cc3c(cc2c1O)OCO3` [Example 33, 1-(3,4-Dimethoxyphenyl)-3-(2-ethyl-1-oxobutyl)-4-hydroxy-2-methoxycarbonyl-6,7-(methylenedioxy)naphthalene], the inhibition in vivo at 0.12 % in diet in assay [2] (setting [3]) was 19%; in assay [2] (setting [4]), 50%.
For `COC(=O)c1c(C(=O)c2ccc(Cl)cc2)c(O)c2cc3c(cc2c1-c1ccc(OC)c(OC)c1)OCO3` [Example 34, 3-(4-Chlorobenzoyl)-1-(3,4-dimethoxyphenyl)-4-hydroxy-2-methoxycarbonyl-6,7-(methylenedioxy)naphthalene], in that order: 23% and 53%.
For `CCC(CC)CC(=O)c1c(C(=O)OC)c(-c2ccc3c(c2)OCCO3)c2c(OC)c(OC)c(OC)cc2c1O` [Example 60, 1-[3,4-(Ethylenedioxy)phenyl]-3-(3-ethyl-1-oxopentyl)-4-hydroxy-2-methoxycarbonyl-6,7,8-trimethoxynaphthalene], in that order: 6% and 33%.
